Assays:
[1] = system: P. berghei parasites constitutively expressing mCherry; test: live imaging of mCherry expressing sporozoite gliding; format: cell-based; settings: for average gliding velocity: DMSO control 2.58+/−0.05 um/s; for total time spent gliding: 200 frame movies, control 46 frames; for pausing, fraction of active gliding time: control 7%; for waving sporozoites: manual assignment from z-stacks, control 15% waving
Source text: To determine the compound effects on the speed of gliding and type of gliding movement, live imaging of mCherry expressing parasites was used. P. berghei parasites constitutively expressing mCherry were allowed to settle on slides and imaged using an inverted microscope at 1.57 fps. ImageJ and the ToAST plugin were used to track parasites for a minimum of 150 frames in the 200 frame movies. The coordinates obtained via the automated tracking were much more useful than those using manual tracking. The ToAST plugin provides automatic identification of sporozoites from debris by aspect ratio and pixel analysis. The program also measures velocity and determine whether sporozoites are gliding in counterclockwise (CCW) or clockwise (CW) patterns, or whether they are stationary or waving, with large changes in vector angles between images.
Instead, the output position data was reanalyzed using similar algorithms as defined by ToAST. Sporozoites were assigned to one of four states at each time point, CW gliding, CCW gliding, stationary, or waving. To determine the speed of gliding, the average velocity was determined for sections of time in which the sporozoite was gliding continuously for more than 6 frames. Sporozoites would often glide for a number of frames and then stop gliding for a number of frames before continuing movement, resulting in more than one block of frames representing continuous gliding. The average for each sporozoite was a weighted average of the average speed during each block of gliding. The DMSO control parasites traveled in a CCW and CW pattern at an average speed of 2.58+/−0.05 um/s. […] Compound 4 gliding information was collected at a lower concentration compared to compound 18 because it was not possible to obtain a sufficient number of circularly gliding parasites for analysis at the higher concentrations (FIG. 11A).
As previously mentioned, sporozoites would often glide for several frames, then stop or pause, and then continue gliding. Upon initial observation of compound 4 samples, it was observed that parasites tended to glide in a stop-and-go manner, gliding for 4-6 frames and then stopping for 2-3 frames. To determine whether these pauses deviated from those observed in the control, the movies were analyzed to determine the total amount of time spent circularly gliding over the course of the 200 frame movies (FIG. 11C). Additionally, the fraction of time that the sporozoites paused for during active gliding was measured (FIG. 11D). A pause was defined as a cessation of circular gliding for no more than 10 frames. The fraction of paused frames to moving frames was measured for stretches of active gliding. […] Compound 4 increased pausing to 32% of the active gliding time, while compound 18 increased pauses to just 16% (FIG. 11D).
Z-stack images were created using ImageJ using the average intensity in each frame. From these frames, patterns of movements to one of two categories were assigned, circular gliding or waving. Waving sporozoites are defined as having on end attached while the other end moves or waves freely (FIG. 11F), resulting in large angular changes in the direction of the vector that lies along the sporozoite. Both compound 4 and 18 changed the ratio between gliding and waving sporozoites. In the control, nearly 85% of sporozoites are gliding circularly and 15% waving, whereas 72% and 66% are waving in compound 4 and 18 samples, respectively.

sporozoites [2] = test: sporozoite viability, propidium iodide exclusion assay; format: cell-based; settings: 10 min at 18° C. then 15 min at 37° C., DMSO 85%, read-out: sporozoite viability (PI exclusion)
Procedure: (§1) FIG. 12A-FIG. 12C is a series of bar charts that show results of sporozoite viability assays. […] The total number of sporozoites was determined from phase images and the number of non-viable sporozoites from the count of red fluorescing sporozoites.
To determine if the compounds' mode of action was by causing cell death, viability assays to look at compound effects were performed. In a first test of viability, a propidium iodide exclusion assay was used (FIG. 12A). The total number of sporozoites was determined from in phase imaging and the number of non-viable sporozoites from the count of red fluorescing sporozoites. […] 250 μM of compound 4 reduced viability to 79% while compound 18 indicated a protective effect with 93% viability.

sporozoites [3] = test: sporozoite viability, 2 dye system of ethidium and calcein-AM; format: cell-based; settings: for viability at 62.5 µM: 0.25 h, 15 min at room temperature, DMSO 96%; for sporozoite viability (ethidium/calcein-AM): extended 15 min incubation at 37° C.
Procedure: as §1
To further investigate viability, a 2 dye system of ethidium and calcein-AM was used to measure both membrane permeability, a marker of death, and enzyme activity, a marker of viability (FIG. 12B). Live cells with intact membranes are impermeable to the ethidium DNA dye but are permeable to the calcein-AM dye, which can interact with active esterases and will fluoresce green. Dying cells allow the ethidium to cross the membrane and interact with DNA, fluorescing red. This two color readout allowed discrimination between live versus dead sporozoites. Sporozoites were incubated at room temperature with two different concentrations of compounds for 15 min and then counted. […] Compound 4 and 18 at 62.5 μM reduced sporozoite viability to 82% and 88%, respectively. At these concentrations, assays could be performed such that the compounds would not kill the parasite. Instead, the compounds merely impaired parasite mobility, indicating an on-target effect of the small molecule on Aldolase-TRAP. By modulating this interaction, despite not killing the parasites at that point, a dramatic reduction in liver cell invasion was observed (FIG. 14A). […] As these dyes are unable to be fixed and sporozoites are not viable for long periods of time, it is possible that there are some viability variances due to difference in time from incubation with the dye until counting.

[4] = system: P. falciparum sporozoites; test: dose-dependent killing of P. falciparum sporozoites; format: cell-based; settings: Plasmodium falciparum
Source text: Observed phenotype at lower concentration pinpoints towards an on-target effect of the compounds.

[5] = molecular target: TRAP interaction with aldolase (Plasmodium falciparum, UniProt Q7KQL9); test: TRAP-aldolase interaction via SPR; format: binding, P. falciparum; settings: as a function of compound concentration
Chain of TRAP interaction with aldolase (Q7KQL9 whole entry): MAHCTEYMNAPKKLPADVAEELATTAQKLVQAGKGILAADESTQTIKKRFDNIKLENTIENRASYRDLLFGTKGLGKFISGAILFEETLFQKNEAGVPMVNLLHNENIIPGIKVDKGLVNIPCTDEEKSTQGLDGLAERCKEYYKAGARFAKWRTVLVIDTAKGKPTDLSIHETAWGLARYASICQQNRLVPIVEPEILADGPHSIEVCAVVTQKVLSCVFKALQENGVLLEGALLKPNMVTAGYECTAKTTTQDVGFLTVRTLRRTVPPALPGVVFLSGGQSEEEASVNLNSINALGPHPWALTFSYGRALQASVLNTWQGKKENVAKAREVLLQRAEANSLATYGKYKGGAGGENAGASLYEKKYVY
Chain of TRAP interaction with aldolase (P16893 516-559, further chain): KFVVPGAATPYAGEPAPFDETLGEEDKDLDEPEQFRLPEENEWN
Procedure: (§2) FIG. 5A (Top) TRAP and FIG. 5B (Bottom) MTRAP show the interaction with aldolase in the presence of compounds 4 and 18 as a function of compound concentration as measured via SPR.
(§3) The dissociation constant for PfAldolase and PfTRAP, MTRAP and PvTRAP was measured by determining the binding response at various concentrations of aldolase passed over a chip with bound, biotinylated peptides (FIG. 3). Dissociation constants were in the mid-nanomolar range and matched with values previously reported in the literature (Boucher LE and Bosch J, J. Mol Recognit. 2013 Oct. 26(10): 496-500).
(§4) (FIG. 5A) TRAP and (FIG. 5B) MTRAP interaction with aldolase in the presence of compounds 4 and 18 is illustrated as a function of compound concentration as measured via SPR.

[6] = molecular target: MTRAP interaction with aldolase (Plasmodium falciparum, UniProt Q7KQL9); test: MTRAP-aldolase interaction via SPR; format: binding, P. falciparum; settings: as a function of compound concentration
Chain of MTRAP interaction with aldolase (Q7KQL9 whole entry): as the sequence (Q7KQL9 whole entry) above
Procedure: as §2, §3, §4

SMILES	average gliding velocity ([1]; 62.5 μM)	total time spent gliding [1]	pausing, fraction of active gliding time [1]	waving sporozoites [1]	viability at 250 µM (sporozoites [2])	viability at 62.5 µM (sporozoites [3])	sporozoite viability (ethidium/calcein-AM) (sporozoites [3])	EC90 [4]	binding interaction of TRAP with aldolase in presence of compound [5]	binding interaction of MTRAP with aldolase in presence of compound [6]	average gliding velocity ([1]; 3.9 μM)
CCCCn1c(N)c(C(=O)NCc2ccccc2)c2nc3ccccc3nc21 [Compound 18, 2-amino-N-benzyl-1-butyl-1H-pyrrolo[2,3-b]quinoxaline-3-carboxamide]	1.88+/−0.17 um/s	16 frames	16%	66%	93%	88%	did not differ from the control	~30 µM	Increased binding interaction	Increased binding interaction	
Brc1ccc(Nc2nc3ccccc3nc2Nc2ccc(Br)cc2)cc1 [Compound 4, N,N′-bis(4-bromophenyl)-2,3-quinoxalinediamine]		25 frames	32%	72%	79%	82%	66%	~125 µM	Increased binding interaction	Increased binding interaction	1.81+/−0.09 um/s

Reference: patent publication US20180087086A1, “CELL EGRESS AND INVASION INHIBITORS AND THEIR USE AS ANTIPARASITICAL AGENTS” (THE JOHNS HOPKINS UNIVERSITY, priority 2015, published 2018)
